Measured values published in patent US20120178738A1, “DIBENZO [B,F] [1,4]OXAZAPINE COMPOUNDS” (ARYX THERAPEUTICS, INC., priority 2007, published 2012).
Read-outs that look alike come from different tables or passages of the source.

Experiments:
human H1 receptors = molecular target: T1, human H1 receptors (Homo sapiens, UniProt P35367); experiment: hH1 receptor radioligand binding ([3H]Pyrilamine); settings: pKi reported on a scale of 1 through 5
T1 construct: expressed in transfected cells; host or cells: Chinese hamster ovary cells (membranes)
T1 sequence (P35367 whole entry): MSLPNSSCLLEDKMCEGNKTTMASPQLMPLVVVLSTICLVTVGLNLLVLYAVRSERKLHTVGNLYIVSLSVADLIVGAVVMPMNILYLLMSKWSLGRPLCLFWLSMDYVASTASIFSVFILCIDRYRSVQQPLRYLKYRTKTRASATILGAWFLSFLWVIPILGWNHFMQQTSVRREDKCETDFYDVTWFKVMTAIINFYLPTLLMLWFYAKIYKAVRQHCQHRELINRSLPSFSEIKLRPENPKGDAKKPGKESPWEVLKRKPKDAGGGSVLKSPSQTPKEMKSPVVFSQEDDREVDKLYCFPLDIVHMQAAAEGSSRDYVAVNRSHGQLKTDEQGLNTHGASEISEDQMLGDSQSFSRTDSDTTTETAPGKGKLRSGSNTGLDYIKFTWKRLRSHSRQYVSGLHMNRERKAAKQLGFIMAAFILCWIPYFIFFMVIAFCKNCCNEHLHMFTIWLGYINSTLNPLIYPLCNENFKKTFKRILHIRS
Protocol: (§1) Consistent with standard competition radioligand binding assays, the methodology was based on displacement of radioligand from tissues (or cell lines) bearing the receptor of interest (Cheng, Y. and Prusoff, W. H. (1973). Biochem. Pharmacol. 22, 3099-3108). The measurements were based on the binding of a single concentration of radiolabeled ligand in the presence of various concentrations of unlabeled ligand.
(§2) Tissues (or cellular plasma membrane fractions) were incubated in the presence of radioligand at equilibrium and in the presence of a range of concentrations of the test compounds (which were non-radiolabeled), and the displaced radioligand was separated from the membranes by filtration. Nonspecific binding was assessed by measuring displacement of the radioligand in the presence of a compound known to block binding of the radioligand to the receptor. Finally, the concentration-response relationship for radioligand displacement (corrected for non-specific binding) was used to assess binding of the test compound to the receptor.

human M1 receptors = molecular target: T2, human M1 receptors (Homo sapiens, UniProt P11229); experiment: hM1 receptor radioligand binding ([3H]NMS); settings: pKi reported on a scale of 1 through 5
T2 construct: expressed in transfected cells; host or cells: Chinese hamster ovary cells (membranes)
T2 sequence (P11229 1-460): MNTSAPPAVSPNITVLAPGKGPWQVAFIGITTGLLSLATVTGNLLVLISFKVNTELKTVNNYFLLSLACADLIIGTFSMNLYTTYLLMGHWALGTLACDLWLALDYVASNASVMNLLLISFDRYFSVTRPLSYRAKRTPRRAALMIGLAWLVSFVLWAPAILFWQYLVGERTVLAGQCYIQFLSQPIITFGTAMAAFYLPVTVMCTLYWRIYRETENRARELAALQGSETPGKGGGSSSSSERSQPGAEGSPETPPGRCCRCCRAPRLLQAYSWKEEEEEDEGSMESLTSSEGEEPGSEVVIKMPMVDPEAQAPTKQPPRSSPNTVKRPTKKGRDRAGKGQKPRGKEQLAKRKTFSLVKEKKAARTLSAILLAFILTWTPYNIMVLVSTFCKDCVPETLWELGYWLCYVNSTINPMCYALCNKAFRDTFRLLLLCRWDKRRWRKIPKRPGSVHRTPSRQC
Protocol: as §1, §2

human 5HT1A receptors = molecular target: T3, human 5HT1A receptors (Homo sapiens, UniProt P08908); experiment: h5-HT1A receptor radioligand binding ([3H]8OH-DPAT); settings: pKi reported on a scale of 1 through 5
T3 construct: expressed in transfected cells; host or cells: Chinese hamster ovary cells (membranes)
T3 sequence (P08908 1-422): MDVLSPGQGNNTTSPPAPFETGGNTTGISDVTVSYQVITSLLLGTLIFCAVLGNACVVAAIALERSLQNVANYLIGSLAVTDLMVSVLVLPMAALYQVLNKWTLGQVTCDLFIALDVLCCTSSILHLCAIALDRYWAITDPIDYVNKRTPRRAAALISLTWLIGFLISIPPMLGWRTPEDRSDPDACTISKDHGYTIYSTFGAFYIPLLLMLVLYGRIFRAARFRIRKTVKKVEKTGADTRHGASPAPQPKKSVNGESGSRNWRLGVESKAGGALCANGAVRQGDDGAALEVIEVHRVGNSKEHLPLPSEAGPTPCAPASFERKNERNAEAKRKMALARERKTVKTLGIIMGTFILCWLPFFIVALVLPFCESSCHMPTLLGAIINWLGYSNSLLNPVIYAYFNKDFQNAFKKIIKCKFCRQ
Protocol: as §1, §2

[1] = molecular target: T4, human D2s dopamine receptors (Homo sapiens, UniProt P14416); experiment: hD2S receptor radioligand binding ([3H]spiperone); settings: pKi reported on a scale of 1 through 5
T4 construct: expressed in transfected cells; host or cells: Chinese hamster ovary cells (membranes)
T4 sequence (P14416 1-414 isoform P14416-2): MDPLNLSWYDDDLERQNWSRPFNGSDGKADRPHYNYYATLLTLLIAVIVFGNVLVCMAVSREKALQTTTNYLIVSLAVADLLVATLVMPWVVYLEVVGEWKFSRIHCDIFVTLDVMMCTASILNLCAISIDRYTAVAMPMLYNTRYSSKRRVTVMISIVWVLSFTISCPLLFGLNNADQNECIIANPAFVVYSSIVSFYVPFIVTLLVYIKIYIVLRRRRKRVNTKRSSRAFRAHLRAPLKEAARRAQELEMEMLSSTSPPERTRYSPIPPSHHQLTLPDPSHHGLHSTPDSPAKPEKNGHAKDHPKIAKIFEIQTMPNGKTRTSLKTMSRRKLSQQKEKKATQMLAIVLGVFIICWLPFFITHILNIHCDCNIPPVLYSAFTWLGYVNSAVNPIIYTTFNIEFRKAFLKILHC
Protocol: as §1, §2

5-HT2A receptor = molecular target: T5, 5-HT2A receptor (Rattus norvegicus, UniProt P14842); experiment: cell-based; settings: read-out: 5HT2A (pKb) (converted)
T5 construct: Eight strips of tissue (0.5 cm long) were cut. and were mounted in 10 ml organ baths; tissue Charles River Laboratories; host or cells: rat aorta strips, endothelium removed
T5 sequence (P14842 whole entry): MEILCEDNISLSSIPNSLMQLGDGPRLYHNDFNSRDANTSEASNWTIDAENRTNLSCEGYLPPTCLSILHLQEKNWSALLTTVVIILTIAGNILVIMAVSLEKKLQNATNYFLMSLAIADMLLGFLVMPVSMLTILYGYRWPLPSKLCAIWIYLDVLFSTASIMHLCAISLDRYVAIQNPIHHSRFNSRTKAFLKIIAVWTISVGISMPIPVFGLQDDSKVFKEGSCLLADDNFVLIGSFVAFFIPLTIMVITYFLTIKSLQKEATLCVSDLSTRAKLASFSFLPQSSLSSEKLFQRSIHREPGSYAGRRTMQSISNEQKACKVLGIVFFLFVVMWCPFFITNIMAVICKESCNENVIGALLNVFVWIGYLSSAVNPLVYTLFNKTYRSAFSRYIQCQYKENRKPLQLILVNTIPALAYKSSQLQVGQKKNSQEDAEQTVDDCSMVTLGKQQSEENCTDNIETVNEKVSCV
Protocol: The rat aorta (approximately 7 cm) was isolated and removed from the animal (male Sprague Dawley rat, Charles River Laboratories, Hollister, Calif.). The endothelium was removed mechanically. Eight strips of tissue (0.5 cm long) were cut. and were mounted in 10 ml organ baths kept at 37° C. with Krebs solution (composition in mM: NaCl (118.2), KCl (4.6), CaCl2 (2.5), MgSO4 (1.2), KH2PO4 (1.2), NaHCO3 (24.8) and dextrose (10.0)) that was constantly aerated with carbogen gas (95% O2/5% CO2) to obtain a pH of 7.4. The tissues were subjected to a resting tension of 2 g (3 times, 15 minutes apart, equilibrated in Krebs solution). The tissues were then washed 15 minutes later. Ten minutes later, the tissues were then exposed to 0.1 μM phenylephrine. At the maximal effect, 1 μM acetylcholine was added to confirm the absence of endothelium and then washed twice, 2 minutes apart.
Contractions were recorded as changes in tension from baseline and expressed as a percentage of the maximum response of the agonist (5-HT) concentration-effect curve. Agonist concentration-response curves were fitted using a nonlinear iterative fitting program (GraphPad Prism) using the relationship of Parker and Waud (Parker, R. B. and Waud, D. R. (1971). Pharmacological estimation of drug-receptor dissociation constants. Statistical evaluation. I. Agonists. J. Pharmacol. Exp. Ther., 177, 1-12). Agonist potency was expressed as EC50 (molar concentration of agonist producing 50% of the maximum response). Concentration-ratios (CRs) were determined from EC50 values in the presence and absence of antagonist and antagonist affinity estimates (pKB and pA2 values) were determined. All data are expressed as mean±s.e. mean.

human 5HT2C receptors = molecular target: T6, human 5HT2C receptors (Homo sapiens, UniProt P28335); experiment: h5-HT2C receptor radioligand binding ([3H]Mesulergine); settings: pKi reported on a scale of 1 through 5
T6 construct: expressed in transfected cells; host or cells: human embryo kidney cells (membranes)
T6 sequence (P28335 33-458): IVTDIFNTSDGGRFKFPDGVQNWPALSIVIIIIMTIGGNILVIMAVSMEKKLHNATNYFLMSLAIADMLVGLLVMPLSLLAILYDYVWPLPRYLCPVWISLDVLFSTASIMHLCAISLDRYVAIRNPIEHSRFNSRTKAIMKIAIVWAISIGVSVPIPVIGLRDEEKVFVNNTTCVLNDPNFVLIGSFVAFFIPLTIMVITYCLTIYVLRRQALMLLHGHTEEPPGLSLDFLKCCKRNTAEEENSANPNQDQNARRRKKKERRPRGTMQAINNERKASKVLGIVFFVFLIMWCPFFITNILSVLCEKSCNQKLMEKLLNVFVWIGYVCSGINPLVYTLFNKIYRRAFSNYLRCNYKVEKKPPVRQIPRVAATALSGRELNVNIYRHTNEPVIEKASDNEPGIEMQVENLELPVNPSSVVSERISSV
Protocol: The measurements were based on the binding of a single concentration of radiolabeled ligand in the presence of various concentrations of unlabeled ligand.
as §2

[2] = pKb reported on a scale of 1 through 5

Ki (human 5HT2C receptors) [nM] | SMILES | Ki (human H1 receptors) [nM] | Ki (human M1 receptors) [nM] | Ki (human 5HT1A receptors) [nM] | Ki [1] [nM] | Kb (5-HT2A receptor; [2]) [nM] | Kb (5-HT2A receptor) [nM]
– | CN1CC[C@@H](OC(=O)C[C@H]2CN(C3=Nc4cc(Cl)ccc4Oc4ccccc43)CCN2C)C1 [ES, (R)-1-methylpyrrolidin-3-yl 2-((S)-4-((E)-8-chlorodibenzo[b,f][1,4]oxazepin-11-yl)-1-methylpiperazin-2-yl)acetate] | 10 to 97.7 | > 10000 | 1000 to 9770 | > 10000 | – | –
– | CCOC(=O)c1ccc(CCC2CN(C3=Nc4cc(Cl)ccc4Oc4ccccc43)CCN2)cc1 (centres unmarked) [Compound F, (E)-ethyl 4-(2-(4-(8-chlorodibenzo[b,f][1,4]oxazepin-11-yl)piperazin-2-yl)ethyl)benzoate] | 1000 to 9770 | 1260 to 2450 | – | 631 to 2450 | > 100 | –
– | COCCNC(=O)C[C@H]1CN(C2=Nc3cc(Cl)ccc3Oc3ccccc32)CCN1CCO [GI, (S,E)-2-(4-(8-chlorodibenzo[b,f][1,4]oxazepin-11-yl)-1-(2-hydroxyethyl)piperazin-2-yl)-N-(2-methoxyethyl)acetamide] | – | > 10000 | 1000 to 9770 | > 10000 | – | 31.6 to 97.7
– | CCOC(=O)CC1CN(C2=Nc3ccccc3Oc3ccc(Cl)cc32)CCN1 (single isomer, unassigned) [Compound C, (E)-ethyl 2-(4-(2-chlorodibenzo[b,f][1,4]oxazepin-11-yl)piperazin-2-yl)acetate] | – | > 10000 | – | 2510 to 9770 | – | 31.6 to 97.7
– | CN1CCN(C2=Nc3cc(Cl)ccc3Oc3ccccc32)C[C@@H]1CC(=O)NC(CF)CF [EV, (S,E)-2-(4-(8-chlorodibenzo[b,f][1,4]oxazepin-11-yl)-1-methylpiperazin-2-yl)-N-(1,3-difluoropropan-2-yl)acetamide] | 10 to 97.7 | 5010 to 9770 | 1000 to 9770 | 2510 to 9770 | – | 31.6 to 97.7
– | CC[C@H](C)OC(=O)C[C@H]1CN(C2=Nc3cc(Cl)ccc3Oc3ccccc32)CCN1 [EP, sec-butyl 2-((S)-4-((E)-8-chlorodibenzo[b,f][1,4]oxazepin-11-yl)piperazin-2-yl)acetate] | 100 to 977 | 5010 to 9770 | 10 to 97.7 | 158 to 617 | – | 10 to 30.9
100 to 977 | CN1CCN(C2=Nc3cc(Cl)ccc3Oc3ccccc32)CC1CC(=O)O (centres unmarked) [DO, (E)-2-(4-(8-chlorodibenzo[b,f][1,4]oxazepin-11-yl)-1-methylpiperazin-2-yl)acetic acid] | 10 to 97.7 | – | 1000 to 9770 | > 10000 | – | –
– | CC(C)CNC(=O)CC1CN(C2=Nc3cc(Cl)ccc3Oc3ccccc32)CCN1 (centres unmarked) [B, (E)-2-(4-(8-chlorodibenzo[b,f][1,4]oxazepin-11-yl)piperazin-2-yl)-N-isobutylacetamide] | – | > 10000 | – | 158 to 617 | – | 31.6 to 97.7
– | O=C(C[C@H]1CN(C2=Nc3cc(Cl)ccc3Oc3ccccc32)CCN1)N1CC[C@@H](O)C1 [GE, 2-((S)-4-((E)-8-chlorodibenzo[b,f][1,4]oxazepin-11-yl)piperazin-2-yl)-1-((R)-3-hydroxypyrrolidin-1-yl)ethanone] | – | 2510 to 4900 | 100 to 977 | 2510 to 9770 | – | 10 to 30.9
– | COC(=O)COCC1CN(C2=Nc3ccccc3Oc3ccc(Cl)cc32)CCN1C (centres unmarked) [DM, (E)-methyl 2-((4-(2-chlorodibenzo[b,f][1,4]oxazepin-11-yl)-1-methylpiperazin-2-yl)methoxy)acetate] | – | – | – | > 10000 | – | 10 to 30.9
– | COC(=O)c1ccc(OCC2CN(C3=Nc4cc(Cl)ccc4Oc4ccccc43)CCN2)cc1 (centres unmarked) [G, (E)-methyl 4-((4-(8-chlorodibenzo[b,f][1,4]oxazepin-11-yl)piperazin-2-yl)methoxy)benzoate] | 1000 to 9770 | 5010 to 9770 | – | 2510 to 9770 | – | 10 to 30.9
100 to 977 | CN1CCN(C2=Nc3cc(Cl)ccc3Oc3ccccc32)C[C@@H]1CC(=O)OCCCF [EX, (S,E)-3-fluoropropyl 2-(4-(8-chlorodibenzo[b,f][1,4]oxazepin-11-yl)-1-methylpiperazin-2-yl)acetate] | 10 to 97.7 | 5010 to 9770 | 1000 to 9770 | 2510 to 9770 | – | –
– | COC(=O)c1ccc(OC[C@H]2CN(C3=Nc4ccccc4Oc4ccc(Cl)cc43)CCN2)cc1 [D, (R,E)-methyl 4-((4-(2-chlorodibenzo[b,f][1,4]oxazepin-11-yl)piperazin-2-yl)methoxy)benzoate] | 100 to 977 | > 10000 | – | 631 to 2450 | – | 31.6 to 97.7
– | COC(=O)C[C@H]1CN(C2=Nc3cc(Cl)ccc3Oc3ccccc32)CCN1CC1CC1 [ET, (S,E)-methyl 2-(4-(8-chlorodibenzo[b,f][1,4]oxazepin-11-yl)-1-(cyclopropylmethyl)piperazin-2-yl)acetate] | 100 to 977 | 2510 to 4900 | 1000 to 9770 | 631 to 2450 | > 100 | –

SMILES | Ki (human 5HT2C receptors) [nM] | Ki (human H1 receptors) [nM] | Ki (human M1 receptors) [nM] | Ki (human 5HT1A receptors) [nM] | Ki [1] [nM] | Kb (5-HT2A receptor; [2]) [nM] | Kb (5-HT2A receptor) [nM]
CN1CCN(C2=Nc3cc(Cl)ccc3Oc3ccccc32)C[C@@H]1CC(=O)N(CC(F)(F)F)CC(F)(F)F [EW, (S,E)-2-(4-(8-chlorodibenzo[b,f][1,4]oxazepin-11-yl)-1-methylpiperazin-2-yl)-N,N-bis(2,2,2-trifluoroethyl)acetamide] | 1000 to 9770 | 100 to 977 | 5010 to 9770 | 1000 to 9770 | > 10000 | > 100 | –
